From patent publication US20030225029A1 (priority 2002, published 2003)
Where a name gives a salt, the structure may show the parent alone. Read-outs that look alike come from different tables or passages of the source.

Key:
[1] = system: HIV-1; conditions: cited from earlier work; for Impact of monotherapy: log decrease in HIV-1 RNA: for six months to one year
[2] = system: HIV-1; conditions: PBMC; cited from earlier work
[3] = system: HIV-1; conditions: T-cell lines; cited from earlier work
[4] = in vivo; cited from earlier work
[5] = in vivo; cited from earlier work; remark: listed apart in the source
[6] = system: pancreatic cancer; conditions: 63 patients previously treated with 5-FU; cited from earlier work
[7] = system: HCV; experiment: Antiviral activity of gemcitabine after single treatment in an HCV-infected patient; format: in vivo, Human
Text: Before the second dosage the baseline viral load was 6.49 log copies/mL. […] The HCV RNA measurement eight hours after the second dosage was 4.04 log copies/mL, indicating an approximate 2.5 log drop in eight hours.

[8] = target: deoxycytidine kinase (dCK) (Cricetulus griseus, UniProt G3I4C0); conditions: phosphorylation to the monophosphate; partially purified enzyme from CHO cells; cited from earlier work
Sequence of deoxycytidine kinase (dCK) (G3I4C0 entry or part of it): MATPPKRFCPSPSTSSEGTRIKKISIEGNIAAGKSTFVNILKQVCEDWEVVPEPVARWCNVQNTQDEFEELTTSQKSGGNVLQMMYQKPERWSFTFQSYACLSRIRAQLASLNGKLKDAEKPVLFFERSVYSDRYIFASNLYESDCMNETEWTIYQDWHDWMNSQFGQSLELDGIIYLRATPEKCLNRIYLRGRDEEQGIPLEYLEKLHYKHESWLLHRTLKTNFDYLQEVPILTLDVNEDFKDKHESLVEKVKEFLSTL

[9] = human, in vivo; cited from earlier work
[10] = target: cytidine deaminase (Homo sapiens, UniProt P32320); conditions: intracellular cytidine deaminase; cited from earlier work
Sequence of cytidine deaminase (P32320 whole entry): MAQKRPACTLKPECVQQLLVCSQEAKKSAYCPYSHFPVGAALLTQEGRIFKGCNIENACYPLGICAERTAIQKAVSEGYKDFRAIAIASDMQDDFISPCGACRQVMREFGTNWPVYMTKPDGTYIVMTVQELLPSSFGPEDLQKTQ

[11] = system: host DNA and RNA polymerases; experiment: Reduction of cellular DNA (rDNA) or RNA (rRNA) levels in Huh7 replicon cells; format: cell-based
[12] = cited from earlier work
[13] = system: locally advanced or metastatic pancreatic cancer; conditions: 1000 mg/m^2 by 30 min infusion once weekly; 63 patients per arm; cited from earlier work
[14] = system: HCV replicon RNA; experiment: HCV replicon system in Huh7 cells, Q-RT-PCR of replicon RNA; format: cell-based
[15] = human, in vivo; cited from earlier work; remark: listed apart in the source
[16] = in vivo; cited from earlier work; remark: listed apart in the source
[17] = system: locally advanced or metastatic NSCLC; conditions: 28-day cycle, cited from earlier work; for objective response rate: first-line NSCLC
[18] = system: friend leukemia virus; conditions: under conditions that allowed normal weight gain; cited from earlier work
[19] = target: T1, human DNA polymerase a (Homo sapiens, UniProt P09884); conditions: dCTP over dFdCTP; cited from earlier work
T1 sequence (P09884 1-1462): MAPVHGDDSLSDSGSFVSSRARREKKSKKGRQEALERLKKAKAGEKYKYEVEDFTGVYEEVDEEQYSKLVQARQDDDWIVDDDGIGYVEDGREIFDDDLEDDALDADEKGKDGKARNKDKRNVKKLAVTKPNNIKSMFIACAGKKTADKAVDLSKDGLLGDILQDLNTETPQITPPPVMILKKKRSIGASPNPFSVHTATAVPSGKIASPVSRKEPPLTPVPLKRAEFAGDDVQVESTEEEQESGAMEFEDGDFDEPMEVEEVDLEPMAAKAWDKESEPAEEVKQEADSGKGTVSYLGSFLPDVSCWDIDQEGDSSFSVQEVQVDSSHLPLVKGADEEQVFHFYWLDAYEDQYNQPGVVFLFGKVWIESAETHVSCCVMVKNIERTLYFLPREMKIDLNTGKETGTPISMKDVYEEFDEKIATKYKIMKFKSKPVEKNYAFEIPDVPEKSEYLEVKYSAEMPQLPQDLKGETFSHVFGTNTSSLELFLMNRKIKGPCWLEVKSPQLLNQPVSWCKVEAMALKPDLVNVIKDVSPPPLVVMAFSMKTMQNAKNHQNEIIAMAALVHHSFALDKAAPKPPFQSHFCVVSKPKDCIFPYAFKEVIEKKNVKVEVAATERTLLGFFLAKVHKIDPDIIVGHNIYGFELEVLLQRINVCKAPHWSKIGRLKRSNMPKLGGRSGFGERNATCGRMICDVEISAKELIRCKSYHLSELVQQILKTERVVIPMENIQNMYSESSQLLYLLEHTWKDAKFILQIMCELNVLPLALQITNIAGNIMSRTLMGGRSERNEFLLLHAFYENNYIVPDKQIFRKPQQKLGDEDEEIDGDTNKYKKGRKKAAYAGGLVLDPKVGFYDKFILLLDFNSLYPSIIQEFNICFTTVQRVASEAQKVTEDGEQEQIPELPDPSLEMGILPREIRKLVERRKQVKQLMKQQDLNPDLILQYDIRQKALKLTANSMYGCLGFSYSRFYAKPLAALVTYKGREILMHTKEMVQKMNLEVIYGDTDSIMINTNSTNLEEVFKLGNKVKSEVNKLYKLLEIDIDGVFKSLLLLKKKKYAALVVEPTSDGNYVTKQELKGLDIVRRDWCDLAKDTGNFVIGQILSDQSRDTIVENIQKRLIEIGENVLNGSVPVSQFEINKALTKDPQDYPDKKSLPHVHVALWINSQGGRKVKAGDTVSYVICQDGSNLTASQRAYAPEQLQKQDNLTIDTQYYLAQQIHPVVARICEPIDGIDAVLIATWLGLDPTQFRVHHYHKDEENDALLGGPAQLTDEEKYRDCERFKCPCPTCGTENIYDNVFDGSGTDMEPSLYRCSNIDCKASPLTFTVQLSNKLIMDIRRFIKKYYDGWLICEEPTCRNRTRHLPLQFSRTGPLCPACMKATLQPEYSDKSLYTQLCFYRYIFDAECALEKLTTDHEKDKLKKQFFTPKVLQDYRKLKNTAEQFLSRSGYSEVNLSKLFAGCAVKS

[20] = target: human DNA polymerase ε (Homo sapiens, UniProt Q07864); conditions: dCTP over dFdCTP; cited from earlier work
Sequence of human DNA polymerase ε (Q07864 whole entry): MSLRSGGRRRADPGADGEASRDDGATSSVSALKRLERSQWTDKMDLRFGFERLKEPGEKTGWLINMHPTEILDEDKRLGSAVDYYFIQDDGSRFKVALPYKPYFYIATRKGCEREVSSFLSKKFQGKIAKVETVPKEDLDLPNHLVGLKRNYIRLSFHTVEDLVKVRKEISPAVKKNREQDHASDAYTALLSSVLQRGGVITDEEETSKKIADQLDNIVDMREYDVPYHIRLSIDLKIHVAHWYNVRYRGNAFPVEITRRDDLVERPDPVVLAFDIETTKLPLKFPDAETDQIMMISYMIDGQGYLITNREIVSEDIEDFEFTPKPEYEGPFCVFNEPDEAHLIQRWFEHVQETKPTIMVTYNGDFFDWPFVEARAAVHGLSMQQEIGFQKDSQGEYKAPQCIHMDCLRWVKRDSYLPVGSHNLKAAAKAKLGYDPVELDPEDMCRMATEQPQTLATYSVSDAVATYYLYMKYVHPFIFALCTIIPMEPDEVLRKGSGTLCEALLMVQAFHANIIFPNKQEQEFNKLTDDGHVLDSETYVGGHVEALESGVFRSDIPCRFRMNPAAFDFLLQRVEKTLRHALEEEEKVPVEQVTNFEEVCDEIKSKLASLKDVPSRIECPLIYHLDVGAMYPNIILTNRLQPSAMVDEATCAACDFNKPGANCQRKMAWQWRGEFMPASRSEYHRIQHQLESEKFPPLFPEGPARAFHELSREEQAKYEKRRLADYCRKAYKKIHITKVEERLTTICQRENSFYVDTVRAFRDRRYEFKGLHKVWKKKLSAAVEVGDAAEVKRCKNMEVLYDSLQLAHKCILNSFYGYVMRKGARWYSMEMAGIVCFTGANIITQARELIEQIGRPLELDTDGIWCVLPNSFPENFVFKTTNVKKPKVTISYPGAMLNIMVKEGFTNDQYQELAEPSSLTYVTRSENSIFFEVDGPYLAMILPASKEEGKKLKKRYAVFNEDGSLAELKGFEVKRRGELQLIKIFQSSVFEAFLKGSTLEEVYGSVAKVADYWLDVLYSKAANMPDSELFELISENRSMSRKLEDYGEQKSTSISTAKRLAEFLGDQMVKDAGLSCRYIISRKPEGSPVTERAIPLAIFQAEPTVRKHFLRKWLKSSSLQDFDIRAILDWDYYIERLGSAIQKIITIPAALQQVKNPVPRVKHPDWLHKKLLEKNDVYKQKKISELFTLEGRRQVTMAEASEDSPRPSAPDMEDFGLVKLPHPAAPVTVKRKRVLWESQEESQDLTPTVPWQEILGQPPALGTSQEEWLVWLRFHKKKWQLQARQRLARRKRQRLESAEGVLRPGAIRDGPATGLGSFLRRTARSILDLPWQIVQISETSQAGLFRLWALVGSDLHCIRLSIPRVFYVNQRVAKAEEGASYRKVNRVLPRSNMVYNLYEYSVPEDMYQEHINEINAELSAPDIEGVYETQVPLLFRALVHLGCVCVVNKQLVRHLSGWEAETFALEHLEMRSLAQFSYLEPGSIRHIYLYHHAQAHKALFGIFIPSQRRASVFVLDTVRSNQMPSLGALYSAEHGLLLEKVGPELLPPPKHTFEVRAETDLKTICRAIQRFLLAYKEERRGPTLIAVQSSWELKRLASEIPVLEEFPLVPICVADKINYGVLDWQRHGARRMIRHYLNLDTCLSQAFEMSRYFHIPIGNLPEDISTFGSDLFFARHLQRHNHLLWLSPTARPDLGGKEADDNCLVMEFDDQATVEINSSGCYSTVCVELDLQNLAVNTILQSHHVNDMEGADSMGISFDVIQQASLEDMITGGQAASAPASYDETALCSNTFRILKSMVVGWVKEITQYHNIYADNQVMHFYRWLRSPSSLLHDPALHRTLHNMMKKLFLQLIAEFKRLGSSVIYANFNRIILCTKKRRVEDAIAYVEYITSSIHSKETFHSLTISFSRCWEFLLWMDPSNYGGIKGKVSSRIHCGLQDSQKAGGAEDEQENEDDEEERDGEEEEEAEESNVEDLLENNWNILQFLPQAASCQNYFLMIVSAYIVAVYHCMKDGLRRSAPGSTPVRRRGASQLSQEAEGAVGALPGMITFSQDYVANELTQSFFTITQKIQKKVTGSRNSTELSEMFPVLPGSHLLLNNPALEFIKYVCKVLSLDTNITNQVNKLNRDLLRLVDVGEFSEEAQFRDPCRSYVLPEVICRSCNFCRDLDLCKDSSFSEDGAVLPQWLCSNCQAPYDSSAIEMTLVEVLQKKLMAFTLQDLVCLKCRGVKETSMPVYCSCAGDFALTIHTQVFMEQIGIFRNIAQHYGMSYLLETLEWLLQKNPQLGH

[21] = system: stage IIIB or Stage 1V NSCLC; conditions: 21-day cycle, cited from earlier work

Question: For `O=c1[nH]cnc2c1ncn2[C@H]1CC[C@@H](CO)O1` [Didanosine, 2′,3′-dideoxyinosine], which “Impact of monotherapy: log decrease in HIV-1 RNA” value [1] is on record?
Answer: ˜0.8 log decrease in HIV-1 RNA for six months to one year

Question: And the EC50 [2]?
Answer: 10 nM

Question: What about the EC50 [3] of the same compound?
Answer: 2 to 20 nM

Question: And the “Parent drug plasma-serum half-life” value [4]?
Answer: 0.6 to 2.7 h

Question: What about the Adverse events [5] of the same compound?
Answer: Diarrhea, nausea, vomiting, peripheral neuropathy, pancreatitis

Question: Which “Impact of monotherapy: log reduction” value ([1]; at 14 days) does the source give for `Nc1nc(=O)n([C@@H]2CS[C@H](CO)O2)cc1F` [Emtricitabine] here?
Answer: ˜2 log reduction at 14 days

Question: And the EC50 [2]?
Answer: 0.7 to 10 nM

Question: What about the EC50 [3] of the same compound?
Answer: 9 to 500 nM

Question: What about the “Parent drug plasma-serum half-life” value [4] of the same compound?
Answer: 1.0 to 4.0 h

Question: What about the Adverse events [5] of the same compound?
Answer: Anemia

Question: With `Nc1ccn([C@@H]2O[C@H](CO)[C@@H](O)C2(F)F)c(=O)n1` [Gemcitabine, β-D-2′,2′-difluorocytidine] as the compound, how does the “clinical benefit response rate” value [6] read?
Answer: 27%

Question: What about the median survival [6] of the same compound?
Answer: 3.9 months

Question: And the baseline viral load ([7]; before the second dosage, day after first 1200 mg dose)?
Answer: 6.49 log copies/mL

Question: And the “HCV RNA measurement” value ([7]; eight hours after the second dosage (approximately 700 mg))?
Answer: 4.04 log copies/mL

Question: And the “drop in HCV RNA” value ([7]; in eight hours after the second dosage)?
Answer: ~2.5 log

Question: And the Km [8]?
Answer: 3.6 µM

Question: What about the plasma protein binding [9] of the same compound?
Answer: negligible

Question: What about the Km [10] of the same compound?
Answer: 96 µM

Question: And the IC50 ([11]; Homo sapiens, Huh-7)?
Answer: 240 nM

Question: What about the half-life ([12]; after short infusion (<70 min)) of the same compound?
Answer: 0.533 to 1.53 h

Question: What about the Volume of distribution ([12]; human, in vivo) of the same compound?
Answer: 370 L/m^2

Question: What about the “clinical benefit response, survival, and time to disease progression compared to 5-FU” value [13] of the same compound?
Answer: statistically significant increases

Question: What about the “reduction of the replicon HCV RNA (FIG. 2)” value ([14]; 4-days incubation) of the same compound?
Answer: dose-dependant reduction

Question: What about the EC90 ([14]; Hepatitis C virus, Huh-7, 96 h, Huh7 cells, 4-days incubation, read-out: EC90 (1-log reduction of replicon RNA) (converted)) of the same compound?
Answer: ~70 nM

Question: And the EC50 ([14]; Hepatitis C virus, Huh-7, Huh7 cells harboring self-replicating HCV RNA, read-out: EC50, reduction of HCV RNA levels)?
Answer: 40 nM

Question: And the “ADVERSE EFFECTS” value [15]?
Answer: Thrombocytopenia,

Question: What about the dose-limiting toxicity [15] of the same compound?
Answer: myelosuppression

Question: Which teratogenicity [16] does the source give for `NC(=O)c1ncn([C@@H]2O[C@H](CO)[C@@H](O)[C@H]2O)n1` [Ribavirin] here?
Answer: teratogenic

Question: What does the source list for `Cc1cn([C@H]2C=C[C@@H](CO)O2)c(=O)[nH]c1=O` [Stavudine, 3′-deoxy-2′,3′-didehycrothymidine]?
Answer: Impact of monotherapy: log decrease in HIV-1 RNA [1]: ˜0.8 log decrease in HIV-1 RNA for six months to one year; EC50 [2]: 9 nM; EC50 [3]: 1 to 25000 nM; Parent drug plasma-serum half-life [4]: 1.0 to 1.6 h; Adverse events [5]: Peripheral neuropathy

Question: For `Nc1ccn([C@H]2CC[C@@H](CO)O2)c(=O)n1` [Zalcitabine, 2′,3′-dideoxycytidine], which “Impact of monotherapy (comparison in words)” value ([1]; in vivo) is on record?
Answer: Less effective than either ddI or AZT

Question: What about the EC50 [2] of the same compound?
Answer: 2 to 160 nM

Question: And the EC50 [3]?
Answer: 30 to 50 nM

Question: And the “Parent drug plasma-serum half-life” value [4]?
Answer: 1.0 to 3.0 h

Question: And the Adverse events [5]?
Answer: Peripheral neuropathy, mouth ulcers

Question: Which “Impact of monotherapy: log decrease in HIV-1 RNA” value [1] does the source give for `Cc1cn([C@H]2CC(N=[N+]=[N-])[C@@H](CO)O2)c(=O)[nH]c1=O` (stereo partly shown) [Zidovudine, 1-(3′Azido-2′-deoxyribosyl)thymine] here?
Answer: One log decrease in HIV-1 RNA for six months to one year 1

Question: And the EC50 [2]?
Answer: 4 to 25 nM

Question: And the EC50 [3]?
Answer: 5 to 6 nM

Question: And the “Parent drug plasma-serum half-life” value [4]?
Answer: 0.8 to 1.9 h

Question: What about the Adverse events [5] of the same compound?
Answer: Nausea, vomiting, headache, neutropenia, anemia, insomnia

Question: For `N.N.[Cl][Pt][Cl]` [cisplatin], which objective response rate [17] is on record?
Answer: 10%

Question: Which results are given for `Nc1ccn([C@@H]2O[C@H](CO)[C@@H](O)C2(F)F)c(=O)n1` [cytidine analog]?
Answer: inhibition of polyerythroblastosis [18]: 90%; inhibition of spleen enlargement [18]: 90%

Question: Which results are given for `Nc1ccn([C@@H]2O[C@H](COP(=O)(O)OP(=O)(O)OP(=O)(O)O)[C@@H](O)C2(F)F)c(=O)n1` [dFdCTP]?
Answer: preference of the polymerase for the normal nucleotide (dCTP) [19]: 20 fold; preference of the polymerase for the normal nucleotide (dCTP) [20]: 20 fold

Question: For `O=c1ccn([C@@H]2O[C@H](CO)[C@@H](O)C2(F)F)c(=O)[nH]1` [dFdU, 2′,2′-difluorodeoxyuridine], which “dCt rRNA” value ([11]; 7.0 μM) is on record?
Answer: 1.96

Question: What about the “dCT HCV” value ([14]; 7.0 μM) of the same compound?
Answer: 6.39

Question: And the ddct ([14]; 7.0 μM, HCV dCt minus rRNA dCt)?
Answer: 4.42

Question: With `Nc1ccn([C@H]2C[C@H](O)[C@@H](CO)O2)c(=O)n1` [deoxycytidine] as the compound, how does the Km [8] read?
Answer: 1.6 µM

Question: For `Nc1ccn([C@@H]2O[C@H](CO)[C@@H](O)C2(F)F)c(=O)n1` [gemcitabine HCl], which tolerance ([7]; 1200 mg in 1000 minutes associated with oxaliplatine) is on record?
Answer: acceptable

Question: Which “Impact of monotherapy: log reduction in HIV-1 RNA” value ([1]; at four weeks) does the source give for Abacavir here?
Answer: Approximate 1.8 log reduction in HIV-1 RNA at four weeks

Question: And the EC50 [3]?
Answer: 4100 nM

Question: And the “Parent drug plasma-serum half-life” value [4]?
Answer: 1.0 to 2.0 h

Question: What about the Adverse events [5] of the same compound?
Answer: Nausea, vomiting, headache, (hypersensi- tivity reaction)

Question: For gemcitabine plus cisplatin, which “median time to disease progression and objective response rates compared to etoposide plus cisplatin” value [21] is on record?
Answer: significantly greater

Question: And the “survival, difference between the two treatment arms” value ([21]; vs etoposide plus cisplatin)?
Answer: no significant difference

Question: And the objective response rate [17]?
Answer: 26%

Question: And the “Median survival time and median time to disease progression compared to cisplatin alone” value [17]?
Answer: significantly greater
